Measurements published in patent US20230102973A1, “Medical Use of Anemoside B4 in the Treatment of Oral Ulcers” (priority 2020, published 2023).

What was measured:
[1] = test system: oral ulcer induced by acetic acid in rats; assay: Acetic acid-induced oral ulcer model in rats (body weight, food intake, ulcer diameter); format: in vivo, SD rats; details: 0.3 mg/kg intraperitoneal once a day
From the text: Rats were anesthetized by intraperitoneal injection of 10% chloral hydrate solution. After anesthesia, 3 mm×3 mm filter paper impregnated with 100% glacial acetic acid was clung to the right buccal mucosa of rats for 45 s. After cauterization for 45 s, a round or oval white lesion of the buccal mucosa in this area was observed, indicating successful modeling.
All animals with successful modeling were randomly divided into six groups according to the ulcer area: (1) model group, 14 rats; (2) Xilei powder (15 mg/kg) group, 12 rats; (3) dexamethasone (0.3 mg/kg) group, 13 rats; (4) anemoside B4 high dose (about 60 mg/kg*3, i.e. 14 mg/suppository, one suppository/time, 3 times/day) group, 14 rats; (5) anemoside B4 medium dose (about 30 mg/kg*3, i.e. 7 mg/suppository, one suppository/time, 3 times/day) group, 14 rats; (6) anemoside B4 low dose (about 15 mg/kg*3, i.e. 3.5 mg/suppository, one suppository/time, 3 times/day) group, 14 rats; and 6 rats were included in the normal group.
24 h after modeling, drug was administrated for 3 successive days, including: local administration in Xilei powder group, once a day; intraperitoneal injection in dexamethasone group, once a day; rectal administration in anemoside B4 group, 3 times a day, and administration of blank suppository in model group, 3 times a day.
(1) General observation: daily food intake per cage was measured from the 2nd day after modeling, and animal weight was measured every 2 days. (2) Measurement of ulcer surface diameter: on the 2nd, 4th and 5th day after modeling, the diameter of ulcer surface was measured with a vernier caliper and recorded.

[2] = test system: oral ulcer induced by paclitaxel in rats; assay: Paclitaxel-induced oral ulcer model in rats (food intake, ulcer diameter); format: in vivo, SD rats; details: intraperitoneal once a day for 5 days
Experimental: Rats were anesthetized by intraperitoneal injection of 10% chloral hydrate solution. After anesthesia, the oral ulcer model induced by chemotherapeutic drugs was established by injecting 50 μl of 6 mg/ml paclitaxel injection into the right buccal mucosa of rats.
All animals with successful modeling were randomly divided into model group, (7 rats), anemoside B4 high dose (about 60 mg/kg*2) group (7 rats), and normal group (6 rats).
24 h after modeling, in anemoside B4 group, rectal administration was performed, 1 suppository/time, twice a day, for 5 successive days; in dexamethasone group, intraperitoneal administration was performed, once a day, for 5 successive days; and in model group, blank suppository was given.
(1) General observation: On the day of modeling, rats were fasted but free access to water for 12 hours, while the diet was given quantitatively on the second day after modeling, and the food intake of rats in each cage was measured daily from the third day after modeling (the second day after administration). (2) Measurement of ulcer surface diameter: from the 2nd day after modeling, the diameter of ulcer surface was measured with a vernier caliper and recorded for 7 successive days.

## C[C@@H]1C[C@H]2[C@@H]3CCC4=CC(=O)C=C[C@]4(C)[C@@]3(F)[C@@H](O)C[C@]2(C)[C@@]1(O)C(=O)CO [Dexamethasone]
[1]; the 2nd day after modeling
  Body weight: 230 + 8.3 g
  Diameter of oral ulcer: 4.64 ± 0.38 mm
[1]; the 3rd day after modeling
  Food intake (g)/rat: 13.4 ± 3.35 g
[1]; the 4th day after modeling
  Body weight: 216 + 9.2 g
  Diameter of oral ulcer: 3.16 ± 0.18 mm
  Food intake (g)/rat: 8.2 ± 2.39 g
[1]; the 5th day after modeling
  Diameter of oral ulcer: 2.78 ± 0.26 mm
  Food intake (g)/rat: 12.1 ± 4.70 g
[1]; the 6th day after modeling
  Body weight: 213 + 13.7 g
[2]; the 2nd day after modeling
  Diameter of oral ulcers: 3.93 ± 0.48 mm
[2]; the 3rd day after modeling
  Diameter of oral ulcers: 4.00 ± 0.40 mm
  Food intake/rat: 13.78 ± 3.83 g
[2]; the 4th day after modeling
  Diameter of oral ulcers: 3.88 ± 0.58 mm
  Food intake/rat: 10.61 ± 2.48 g
[2]; the 5th day after modeling
  Diameter of oral ulcers: 3.50 ± 0.87 mm
  Food intake/rat: 13.91 ± 1.92 g
[2]; the 6th day after modeling
  Diameter of oral ulcers: 3.26 ± 0.84 mm
  Food intake/rat: 19.84 ± 1.14 g
[2]; the 7th day after modeling
  Diameter of oral ulcers: 2.85 ± 0.81 mm
  Food intake/rat: 18.79 ± 0.56 g
